Laboratory results: article PMC3265452 (PLoS Neglected Tropical Diseases, 2012)
Where a name gives a salt, the structure may show the parent alone.

These molecules were tested against AaDOP2 (Aedes aegypti, UniProt H6D5H2) (assay: AaDOP2 antagonist screen of the LOPAC1280 library (HEK-CRELuc-Aadop2 cells, luminescence)). Details: not given.
Type: cell-based

Sequence of AaDOP2 (H6D5H2 1-476): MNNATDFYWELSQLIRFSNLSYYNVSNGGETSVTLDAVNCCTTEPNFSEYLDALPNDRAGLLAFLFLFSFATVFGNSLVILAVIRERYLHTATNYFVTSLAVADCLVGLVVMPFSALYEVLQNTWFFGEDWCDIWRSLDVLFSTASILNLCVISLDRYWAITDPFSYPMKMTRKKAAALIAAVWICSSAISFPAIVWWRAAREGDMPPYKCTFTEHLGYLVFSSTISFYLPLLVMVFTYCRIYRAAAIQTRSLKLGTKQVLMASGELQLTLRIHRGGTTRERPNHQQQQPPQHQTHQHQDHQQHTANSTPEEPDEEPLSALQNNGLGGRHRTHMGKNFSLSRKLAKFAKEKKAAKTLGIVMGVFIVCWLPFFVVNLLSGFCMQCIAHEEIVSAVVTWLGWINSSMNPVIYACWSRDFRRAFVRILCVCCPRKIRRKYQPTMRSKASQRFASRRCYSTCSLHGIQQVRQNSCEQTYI

In order of rising “Compound effect (percent receptor signaling in presence of test compound, relative lux units relative to the SCH23390 control)” value:
1. O=c1c(-c2ccc(O)cc2)coc2cc(O)ccc12 [Compound 410, Daidzein]  47
2. Nc1nccc2c1ncn2[C@@H]1O[C@H](CO)[C@@H](O)[C@H]1O [Compound 419, 3-deazaadenosine]  59
3. CCn1c(=O)[nH]c2cc(Cl)c(Cl)cc21 [Compound 428, DCEBIO]  67
4. COc1cc(C[C@@H](C)N)c(OC)cc1I.Cl [Compound 464, ( R)-(-)-DOI hydrochloride]  69
5. C#C[C@]1(O)CC[C@H]2[C@@H]3CCC4=Cc5oncc5C[C@]4(C)[C@H]3CC[C@@]21C [Compound 421, Danazol]  83
6. CN(C)[C@@H]1C(O)=C(C(N)=O)C(=O)[C@@]2(O)C(O)=C3C(=O)c4c(O)ccc(Cl)c4[C@@H](O)[C@H]3C[C@@H]12 [Compound 403, Demeclocycline hydrochloride]  84
7. COc1cc2nc(N3CCN(C(=O)C4COc5ccccc5O4)CC3)nc(N)c2cc1OC (centres unmarked) [Compound 432, Doxazosin mesylate]  86
8. Br.C=CCN1CCc2cccc3c2[C@H]1Cc1ccc(O)c(O)c1-3 [Compound 441, R(-)-N-Allylnorapomorphine hydrobromide]  87
9. O=C1NC(c2cccc([N+](=O)[O-])c2)=CCN1c1ccccc1O [Compound 443, Icilin]  87
10. N[C@@H](Cc1ccc(O)c(O)c1)C(=O)O [Compound 430, L-3,4-Dihydroxyphenylalanine]  91
11. CCCCCCN(CCCCCC)C(=O)Cc1c(-c2ccc(F)cc2)[nH]c2ccccc12 [Compound 422, N,N-Dihexyl-2-(4-fluorophenyl)indole-3-acetamide]  93
12. O=C(O)Cc1ccccc1Nc1c(Cl)cccc1Cl [Compound 405, Diclofenac sodium]  94
13. c1ccc(-c2ccccn2)nc1 [Compound 408, 2,2'-Bipyridyl]  94
14. CC(C)c1cccc(C(C)C)c1O [Compound 452, Propofol]  94
15. CC(C)N(CCC(C(N)=O)(c1ccccc1)c1ccccn1)C(C)C (centres unmarked) [Compound 409, Disopyramide]  95
16. O=[N+]([O-])c1cc(O)c(O)c([N+](=O)[O-])c1 [Compound 456, 3,5-Dinitrocatechol]  95
17. O=c1oc(Cl)c(Cl)c2ccccc12 [Compound 413, 3,4-Dichloroisocoumarin]  96
18. CCn1cc(C(=O)O)c(=O)c2ccc(Cc3ccccc3)nc21 [Compound 442, Amfonelic acid]  96
19. Cl.O=C(OC1CCN(CCCl)CC1)C(c1ccccc1)c1ccccc1 [Compound 461, 4-Diphenylacetoxy-N-(2-chloroethyl)piperidine hydrochloride]  99
20. NCCCCCCCCCCN [Compound 462, 1,10-Diaminodecane]  99
21. Clc1ccc(N2C[C@H]3CC[C@@H](C2)N3)nn1 [Compound 414, DBO-83]  100
22. O=C1CN(/N=C/c2ccc(-c3ccc([N+](=O)[O-])cc3)o2)C(O)=N1 [Compound 427, Dantrolene sodium]  100
23. Oc1c2ccccc2c2c3c(cccc13)N=N2 [Compound 424, SP600125]  101
24. C#CCn1c(=O)c2c(ncn2C)n(C)c1=O [Compound 459, 3,7-Dimethyl-I-propargylxanthine]  101
25. C[C@H]1c2cccc(O)c2C(=O)C2=C(O)[C@]3(O)C(=O)C(C(N)=O)=C(O)[C@@H](N(C)C)[C@@H]3[C@@H](O)[C@@H]21 [Compound 433, Doxycycline hydrochloride]  103
26. Br.CO[C@H]1CC=C2CCN3CCC4=C(CC(=O)OC4)[C@]23C1 [Compound 463, Dihydro-beta-erythroidine hydrobromide]  103
27. CCCN(CCC)CCc1ccc(O)c(O)c1 [Compound 439, Dipropyldopamine hydrobromide]  106
28. CCCN(CCC)CCc1c[nH]c2ccc(C(N)=O)cc12.O=C(O)/C=C\C(=O)O [Compound 457, N,N-Dipropyl-5-carboxamidotryptamine maleate]  106
29. CN1CC[C@@]23CCCC[C@@H]2[C@@H]1Cc1ccc(O)cc13.O=C(O)C(O)C(O)C(=O)O [Compound 453, Dextrorphan D-tartrate]  107
30. COc1cc(OC)cc(C(CNc2ncnc3c2ncn3[C@@H]2O[C@H](CO)[C@@H](O)[C@H]2O)c2ccccc2C)c1 (some centres unmarked) [Compound 455, DPMA]  110
31. CN(N=O)c1cc(O)ccc1O [Compound 417, Dephostatin]  111
32. CC1=NS(=O)(=O)c2cc(Cl)ccc2N1 [Compound 425, Diazoxide]  115
33. OC[C@H]1NC[C@H](O)[C@@H](O)[C@@H]1O [Compound 429, 1-Deoxynojirimycin hydrochloride]  116
34. Br.NC1CCc2cc(O)c(O)cc2C1 (centres unmarked) [Compound 434, 6,7-ADTN hydrobromide]  118
35. O=C(O)Cc1ccc(O)c(O)c1 [Compound 426, 3,4-Dihydroxyphenylacetic acid]  120
36. CCCn1c(=O)c2c(ncn2C)n(CCC)c1=O [Compound 450, 1,3-Dipropyl-7-methylxanthine]  123
37. O=C1N=c2cc(Cl)c(Cl)cc2=NC1=O [Compound 458, 6,7-Dichloroquinoxaline-2,3-dione]  129

Same assay, conditions: 10 µM compound, 300 nM dopamine, 2 hr; hit = compound effect <20

In order of rising “Compound effect (percent receptor signaling in presence of test compound, relative lux units relative to the SCH23390 control)” value:
1. Cl.Cl.Fc1ccc(C(OCCN2CCN(CCCc3ccccc3)CC2)c2ccc(F)cc2)cc1 [Compound 445, GBR-12909 dihydrochloride]  59%
2. Br.CN1CCc2cc(O)cc3c2[C@H]1Cc1ccc(O)c(O)c1-3 [Compound 437, R(-)-2,10,11-Trihydroxyaporphine hybrobromide]  71%
3. N/C(=N\C(=O)c1nc(Cl)c(N)nc1N)NCc1ccc(Cl)c(Cl)c1 [Compound 418, 3',4'-Dichlorobenzamil]  73%
4. CCCCCCCCCCC/C=C\C(C)(C)/C=C\CCCC(=O)O [Compound 415, 7,7-Dimethyl-(5Z,8Z)-eicosadienoic acid]  82%
5. C/C=C1\C(=O)C[C@H]2[C@@H]3CCC4=CC(=O)CC[C@]4(C)[C@H]3CC[C@]12C [Compound 420, (Z)-Gugglesterone]  91%
6. C[N+]1(C)CCC(OC(=O)C(c2ccccc2)c2ccccc2)CC1.[I-] [Compound 449, 4-DAMP methiodide]  97%
7. CCCCC1(C2CCCC2)Cc2cc(OCC(=O)O)c(Cl)c(Cl)c2C1=O (stereo not drawn) [Compound 454, R(+)-Butylindazone]  97%
8. COc1c2c(nc3ccccc13)OC(C(C)(O)CO)C2 (centres unmarked) [Compound 411, Dubinidine]  100%
9. O=C(O)c1cc(=O)c2c(Cl)cc(Cl)cc2[nH]1 [Compound 460, 5,7-Dichlorokynurenic acid]  102%
10. O=C(O)CN(CCN(CC(=O)O)CC(=O)O)CCN(CC(=O)O)CC(=O)O [Compound 404, Diethylenetriaminepentaacetic acid]  118%
